# Patent publication US4492650A, “A54556 Antibiotics and process for production thereof” (Eli Lilly and Company, priority 1982, dated 1985)
# “And” between values parts separate entries of the source, which are not always exact repeats. Equal entries are not always repeated. Where two headings read alike, the source gives them in different places. Bridge positions count the residues as written; N and C are the ends. Square brackets hold non-standard residues; d marks the D form. Peptide text beside a SMILES is read from it. * marks the point of attachment. ξ: configuration not given here. Octatrienoyl(2E,4E,6E) = C/C=C/C=C/C=C/C(=O)*; Hexadienoyl(2E,4E) = C/C=C/C=C/C(=O)*; ξPro(4ξ-Me) = CC1CNC(C(=O)O)C1; NMeA = CN[CH](C)C(=O)O
# Legend:
# [1] = test system: Peptococcus prevoti 1281; test: MIC, agar-dilution method; type: cell-based
# [2] = test system: Staphylococcus aureus 3055; details: benzylpenicillin-susceptible
# [3] = test system: Streptococcus pneumoniae Park I
# [4] = test system: Staphylococcus epidermidis EPI1; details: second test, Table 13
# [5] = test system: Bacteroides corrodens 1874; test: MIC, agar-dilution method; type: cell-based; details: Eikenella corrodens
# [6] = test system: Fusobacterium symbiosum 1470; test: MIC, agar-dilution method; type: cell-based
# [7] = test system: Clostridium perfringens 81; test: microbe, parasite or virus in culture; type: cell-based
# [8] = test system: Peptococcus asaccharolyticus 1302; test: MIC, agar-dilution method; type: cell-based; details: Peptoniphilus asaccharolyticus
# [9] = test system: Streptococcus sp. (Group D) 9960; test: Disc-plate sensitivity; details: read-out: Zone diameter
# [10] = test system: Staphylococcus aureus V41; details: second test, Table 13, benzylpenicillin resistant
# [11] = test system: Bacteroides vulgatis 1211; test: MIC, agar-dilution method; type: cell-based
# [12] = test system: experimental bacterial infections; test: In vivo antimicrobial activity against experimental bacterial infections; details: mice, subcutaneously
# Description: (§1) When two doses of test compound were administered subcutaneously to mice in illustrative infections, the activity is measured as an ED50 value [effective does in mg./kg. to protect fifty percent of the test animals: See Warren Wick et al., J. Bacteriol. 81, 233-235 (1961)]. The ED50 values for these antibiotic A54556 factors are recorded in Table 15, which follows.
# [13] = Electrometric titration; type: physicochemical; details: 66 percent dimethylformamide in water
# Source text: Antibiotic A54556 factor A is a tan, amorphous solid. […] As determined by electron impact and field desorption mass spectrometry, A54556 factor A has a molecular weight of 718.
# [14] = test system: Streptococcus pyogenes (Group A) C203
# [15] = Solubility; details: for solubility in organic solvents: lower alcohols (methyl, ethyl, isopropyl, n-propyl, n-butyl), acetone, ethyl acetate, tetrahydrofuran, pyridine, dimethyl sulfoxide
# [16] = test system: Peptostreptococcus anaerobius 1428; test: MIC, agar-dilution method; type: cell-based
# [17] = test system: Staphylococcus aureus 3130; details: Table 12, benzylpenicillin resistant, methicillin resistant
# [18] = test system: Streptococcus sp. (Group D) X66; test: Disc-plate sensitivity; type: cell-based; details: second test, Table 13; for zone of inhibition at 30 µg/disc / zone of inhibition at 300 µg/disc: Streptococcus
# [19] = test system: Staphylococcus aureus 3074; details: Table 12, benzylpenicillin resistant
# [20] = test system: Propionibacterium acnes 79; test: MIC, agar-dilution method; type: cell-based; details: Cutibacterium acnes
# Source text: (§2) Antibiotic A54556 factors A, B, C, D, E, F, G, and H have been tested and found to be active against a number of anaerobic bacteria, as recorded in Table 14, which follows, the MIC values having been determined by the agar-dilution method.
# [21] = test system: Clostridium difficile 2994; test: MIC, agar-dilution method; type: cell-based; details: Clostridioides difficile
# Source text: as §2
# [22] = test system: Eubacterium aerofaciens 1235; test: MIC, agar-dilution method; type: cell-based; details: Collinsella aerofaciens
# Source text: as §2
# [23] = test system: Bacteroides melaninogenicus 1856/28; test: MIC, agar-dilution method; type: cell-based; details: Prevotella intermedia
# Source text: as §2
# [24] = test system: Bacteroides thetaiotaomicron 1438; test: MIC, agar-dilution method; type: cell-based
# Source text: as §2
# [25] = test system: Clostridium septicum 1128; test: MIC, agar-dilution method; type: cell-based
# Source text: as §2
# [26] = test system: Bacteroides fragilis 111; test: MIC, agar-dilution method; type: cell-based
# Source text: as §2
# [27] = test system: Bacteroides fragilis 1877; test: MIC, agar-dilution method; type: cell-based
# Source text: as §2
# [28] = test system: Peptostreptococcus intermedius 1264; test: MIC, agar-dilution method; type: cell-based
# Source text: as §2
# [29] = test system: Bacteroides melaninogenicus 2736; test: MIC, agar-dilution method; type: cell-based
# Source text: as §2
# [30] = test system: Bacteroides fragilis 1936B; test: MIC, agar-dilution method; type: cell-based
# Source text: as §2
# [31] = test system: Fusobacterium necrophorum 6054A; test: MIC, agar-dilution method; type: cell-based
# Source text: as §2
# [32] = test system: S. pyogenes; test: In vivo protection against experimental bacterial infection in mice; details: Streptococcus pyogenes, sc, two doses subcutaneously
# Description: as §1
# [33] = test system: anaerobic bacteria; test: Activity against anaerobic bacteria; type: cell-based; details: agar-dilution method
# [34] = 30 mcg./disc, second test, Table 13
# [35] = 300 mcg./disc, second test, Table 13
# [36] = 30 mcg./disc, second test, Table 13, listed as A
# [37] = read-out: Zone diameter, 30 mcg./disc
# [38] = read-out: Zone diameter, 300 mcg./disc
# [39] = 300 mcg./disc, second test, Table 13, listed as C
# [40] = 30 mcg./disc, second test, Table 13, listed as E
structure (smiles),measurement,setting,value
"C/C=C/C=C/C=C/C(=O)NC(Cc1ccccc1)C(=O)NC1COC(=O)C2CCCN2C(=O)C(C)NC(=O)C(C)N(C)C(=O)C2CC(C)CN2C1=O (stereo not shown) [Factor A] ({Octatrienoyl(2E,4E,6E)}-FS[ξPro(4ξ-Me)][NMeA]AP; ester 2-C; configuration not given here)",MIC,[1],> 128 µg/mL
same,Zone diameter,"[2]; 30 mcg./disc, Table 12",19.2 mm.
same,Zone diameter,[2]; [34],19 mm. and 21 mm.
same,Zone diameter,"[2]; 300 mcg./disc, Table 12",24.3 mm.
same,Zone diameter,[2]; [35],24 mm.
same,Zone diameter,"[2]; 300 mcg./disc, second test, Table 13, listed as A",28 mm.
same,Zone diameter,"[3]; 30 mcg./disc, Table 12",26.0 mm.
same,Zone diameter,[3]; [36],18 mm. and 22 mm.
same,Zone diameter,"[3]; 300 mcg./disc, Table 12",34.0 mm.
same,Zone diameter,[3]; [35],33 mm. and 35 mm.
same,Zone diameter,[4]; 30 mcg./disc,20 mm.
same,Zone diameter,[4]; 300 mcg./disc,22 mm. and 28 mm.
same,MIC,[5],> 128 µg/mL
same,MIC,[6],> 128 µg/mL
same,MIC,[7],> 128 µg/mL
same,MIC,[8],> 128 µg/mL
same,zone of inhibition at 30 µg/disc,[9],22.4 mm
same,zone of inhibition at 300 µg/disc,[9],28 mm
same,Zone diameter,[10]; 30 mcg./disc,20 mm. and 22 mm.
same,Zone diameter,[10]; 300 mcg./disc,27 mm. and 33 mm.
same,MIC,[11],> 128 µg/mL
same,in vivo antimicrobial activity against experimental bacterial infections,[12],have shown in vivo antimicrobial activity
same,titratable groups,[13],no titratable groups
same,Zone diameter,"[14]; 30 mcg./disc, Table 12",24.0 mm.
same,Zone diameter,[14]; [34],25 mm.
same,Zone diameter,[14]; [36],20 mm.
same,Zone diameter,"[14]; 300 mcg./disc, Table 12",30.0 mm.
same,Zone diameter,[14]; [35],30 mm. and 32 mm.
same,solubility in organic solvents,[15],soluble
same,solubility in water,[15]; water,insoluble
same,MIC,[16],> 128 µg/mL
same,Zone diameter,[17]; 30 mcg./disc,21.7 mm.
same,Zone diameter,[17]; 300 mcg./disc,25.5 mm.
same,Zone diameter,"[18]; 30 mcg./disc, listed as A",28 mm.
same,Zone diameter,[18]; 300 mcg./disc,29 mm.
same,zone of inhibition at 30 µg/disc,[18]; [37],23 mm
same,zone of inhibition at 300 µg/disc,[18]; [38],33 mm
same,Zone diameter,[19]; 30 mcg./disc,18.3 mm.
same,Zone diameter,[19]; 300 mcg./disc,20.9 mm.
same,MIC,[20],> 128 µg/mL
same,MIC,[21],> 128 µg/mL
same,MIC,[22],> 128 µg/mL
same,MIC,[23],> 128 µg/mL
same,MIC,[24],> 128 µg/mL
same,MIC,[25],> 128 µg/mL
same,MIC,[26],> 128 µg/mL
same,MIC,[27],> 128 µg/mL
same,MIC,[28],> 128 µg/mL
same,MIC,[29],> 128 µg/mL
same,MIC,[30],> 128 µg/mL
same,MIC,[31],> 128 µg/mL
same,ED50,[32],> 70 mg/kg
same,activity against a number of anaerobic bacteria,[33],active
"C/C=C/C=C/C(=O)NC(Cc1ccccc1)C(=O)NC1COC(=O)C2CCCN2C(=O)C(C)NC(=O)C(C)N(C)C(=O)C2CC(C)CN2C1=O (stereo not shown) [Factor C] ({Hexadienoyl(2E,4E)}-FS[ξPro(4ξ-Me)][NMeA]AP; ester 2-C; configuration not given here)",MIC,[1],> 128 µg/mL
same,Zone diameter,[2]; [34],21 mm. and 23 mm.
same,Zone diameter,[2]; [35],25 mm. and 31 mm.
same,Zone diameter,[3]; [34],25 mm. and 30 mm.
same,Zone diameter,[3]; [35],30 mm.
same,Zone diameter,[3]; [39],35 mm.
same,Zone diameter,[4]; 30 mcg./disc,21 mm. and 23 mm.
same,Zone diameter,[4]; 300 mcg./disc,24 mm.
same,Zone diameter,"[4]; 300 mcg./disc, listed as C",26 mm.
same,MIC,[5],> 128 µg/mL
same,MIC,[6],> 128 µg/mL
same,MIC,[7],> 128 µg/mL
same,MIC,"[8]; agar-dilution, read-out: MIC",16 µg/mL
same,Zone diameter,[10]; 30 mcg./disc,24 mm.
same,Zone diameter,"[10]; 30 mcg./disc, listed as C",21 mm.
same,Zone diameter,[10]; 300 mcg./disc,30 mm. and 25 mm.
same,MIC,[11],> 128 µg/mL
same,in vivo antimicrobial activity against experimental bacterial infections,[12],have shown in vivo antimicrobial activity
same,titratable groups,[13],no titratable groups
same,Zone diameter,[14]; [34],22 mm. and 28 mm.
same,Zone diameter,[14]; [35],30 mm.
same,Zone diameter,[14]; [39],33 mm.
same,solubility in organic solvents,[15],soluble
same,MIC,[16],> 128 µg/mL
same,Zone diameter,[18]; 30 mcg./disc,25 mm.
same,Zone diameter,"[18]; 300 mcg./disc, listed as C",35 mm.
same,zone of inhibition at 30 µg/disc,"[18]; 30 mcg./disc, read-out: Zone diameter",24 mm
same,zone of inhibition at 300 µg/disc,"[18]; 300 mcg./disc, read-out: Zone diameter",25 mm
same,MIC,[20],32 µg/mL
same,MIC,[21],> 128 µg/mL
same,MIC,[22],> 128 µg/mL
same,MIC,[23],> 128 µg/mL
same,MIC,[24],> 128 µg/mL
same,MIC,[25],> 128 µg/mL
same,MIC,[26],> 128 µg/mL
same,MIC,[27],> 128 µg/mL
same,MIC,[28],> 128 µg/mL
same,MIC,[29],> 128 µg/mL
same,MIC,[30],> 128 µg/mL
same,MIC,[31],> 128 µg/mL
same,ED50,[32],11.1 mg/kg
same,activity against a number of anaerobic bacteria,[33],active
"C/C=C/C=C/C(=O)NC(Cc1ccccc1)C(=O)NC1COC(=O)C2CCCN2C(=O)C(C)NC(=O)C(C)N(C)C(=O)C2CCCN2C1=O (stereo not shown) [Factor E] ({Hexadienoyl(2E,4E)}-FSP[NMeA]AP; ester 2-C; configuration not given here)",MIC,[1],128 µg/mL
same,Zone diameter,[2]; [34],17 mm.
same,Zone diameter,[2]; [40],15 mm.
same,Zone diameter,[2]; [35],23 mm.
same,Zone diameter,[3]; [34],25 mm.
same,Zone diameter,[3]; [40],22 mm.
same,Zone diameter,[3]; [35],35 mm. and 28 mm.
same,Zone diameter,"[4]; 30 mcg./disc, listed as E",13 mm. and 11 mm.
same,Zone diameter,[4]; 300 mcg./disc,25 mm. and 24 mm.
same,MIC,[5],> 128 µg/mL
same,MIC,[6],128 µg/mL
same,MIC,[7],> 128 µg/mL
same,MIC,[8],64 µg/mL
same,Zone diameter,[10]; 30 mcg./disc,17 mm.
same,Zone diameter,"[10]; 30 mcg./disc, listed as E",13 mm.
same,Zone diameter,[10]; 300 mcg./disc,27 mm. and 23 mm.
same,MIC,[11],> 128 µg/mL
same,in vivo antimicrobial activity against experimental bacterial infections,[12],have shown in vivo antimicrobial activity
same,titratable groups,[13],no titratable groups
same,Zone diameter,[14]; [40],20 mm. and 18 mm.
same,Zone diameter,[14]; [35],30 mm. and 24 mm.
same,solubility in organic solvents,[15],soluble
same,MIC,[16],> 128 µg/mL
same,Zone diameter,"[18]; 30 mcg./disc, listed as E",21 mm.
same,Zone diameter,[18]; 300 mcg./disc,27 mm.
same,zone of inhibition at 30 µg/disc,[18]; [37],22 mm
same,zone of inhibition at 300 µg/disc,[18]; [38],28 mm
same,MIC,[20],> 128 µg/mL
same,MIC,[21],> 128 µg/mL
same,MIC,[22],> 128 µg/mL
same,MIC,[23],> 128 µg/mL
same,MIC,[24],> 128 µg/mL
same,MIC,[25],> 128 µg/mL
same,MIC,[26],> 128 µg/mL
same,MIC,[27],> 128 µg/mL
same,MIC,[28],> 128 µg/mL
same,MIC,[29],> 128 µg/mL
same,MIC,[30],> 128 µg/mL
same,MIC,[31],> 128 µg/mL
same,ED50,[32],> 70 mg/kg
same,activity against a number of anaerobic bacteria,[33],active
